The test has as its target T1, MST1 (Homo sapiens, UniProt Q13043).
T1 sequence (Q13043 1-487): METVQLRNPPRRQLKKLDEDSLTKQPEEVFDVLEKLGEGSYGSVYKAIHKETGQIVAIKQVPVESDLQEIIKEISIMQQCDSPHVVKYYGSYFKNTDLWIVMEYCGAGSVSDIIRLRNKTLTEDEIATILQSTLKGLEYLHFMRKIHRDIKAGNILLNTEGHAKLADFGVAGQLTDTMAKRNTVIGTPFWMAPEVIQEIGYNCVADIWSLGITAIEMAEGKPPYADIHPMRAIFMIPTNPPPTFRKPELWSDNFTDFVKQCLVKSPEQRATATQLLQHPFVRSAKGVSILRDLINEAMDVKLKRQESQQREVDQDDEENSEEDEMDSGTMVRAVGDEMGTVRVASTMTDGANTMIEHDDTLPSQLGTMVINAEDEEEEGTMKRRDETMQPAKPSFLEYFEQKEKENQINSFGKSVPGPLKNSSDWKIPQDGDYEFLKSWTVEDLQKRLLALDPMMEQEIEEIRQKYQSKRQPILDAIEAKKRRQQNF
The test can be described thus: In vitro measurement of MST1 inhibition (Z′-Lyte kinase assay). Type of test: biochemical. The protocol: Assays were performed in low-volume 384-well black proxiplates (Perkin Elmer, PE-Blk-Proxi-6008269). Eight compounds were first diluted into LDV (Echo) plates using a Multiprobe, at a starting concentration of 1 mM compound in 100% DMSO. Using the ECHO, 75 nl compound was pinged into 384-well proxiplates. The starting concentration of compound in each assay plate is 7.5 uM, followed by 3-fold dilutions, to give quadruplicate ten-point concentration curves. A 3× solution of MST1 enzyme in kinase buffer (Invitrogen, PR4940C) was added to wells containing compound or DMSO controls, followed by a 10 minute preincubation step. Reactions were initiated by adding 5 μL of a mixture of ATP and Z′-Lyte S/T Pep 7 (Invitrogen, PV3180) and proceeded at RT for 1 hour. […] At the end of the kinase reaction, 10 ul of developing solution (Invitrogen, catalog #PR4876B; development buffer A diluted […] in development buffer B) was added to each well and incubated at RT for 1 hr. All wells were read on a Tecan at 400 nm excitation and 460 nm/530 nm emission. Plus and minus enzyme controls were used to calculate percent inhibition and IC50 curves were generated using Excel.

Setting [1] is: 1 μM ATP, read-out: IC50 (μM) 1 μM ATP.
Setting [2] is: 50 μM ATP, read-out: IC50 (μM) 50 μM ATP.

Read-outs that look alike come from different tables or passages of the source. A value given as a limit tells only on which side of the number the result lay.

The term IC50 denotes the concentration at which inhibition is half-maximal. For the compound `CCN(CC1CC1)S(=O)(=O)c1ccc(-c2cnc(N)c(-c3ccc4c(c3)CCNC4=O)n2)cc1` [4-(5-amino-6-(1-oxo-1,2,3,4-tetrahydroisoquinolin-6-yl)pyrazin-2-yl)-N-(cyclopropylmethyl)-N-ethylbenzenesulfonamide], the IC50 is less than 0.01 µM under setting [1] and less than 0.01 µM under setting [2]. For `CN(C1CC1)S(=O)(=O)c1ccc(-c2cnc(N)c(C3=CCN(C(=O)CC#N)CC3)c2)cc1` [4-(2-amino-1′-(2-cyanoacetyl)-1′,2′,3′,6′-tetrahydro-[3,4′-bipyridin]-5-yl)-N-cyclopropyl-N-methylbenzenesulfonamide], the IC50 was less than 0.15 µM under setting [1] and less than 0.15 µM under setting [2]. In the case of `CC(C)(C)OC(=O)N1CC=C(c2cnc(N)c(-c3ccc4c(c3)CCNC4=O)c2)CC1` [tert-butyl 6-amino-5-(1-oxo-1,2,3,4-tetrahydroisoquinolin-6-yl)-5′,6′-dihydro-[3,4′-bipyridine]-1′(2′H)-carboxylate], the IC50 runs as follows: under setting [1], less than 0.15 µM; under setting [2], less than 0.05 µM. With `NC(=O)c1ccc(-c2cc(-c3ccc(CC(=O)N4CCCC4)cc3)cnc2N)cc1` [4-(2-amino-5-(4-(2-oxo-2-(pyrrolidin-1-yl)ethyl)phenyl)pyridin-3-yl)benzamide], the IC50 under setting [2] was less than 0.15 µM. In the case of `N#CC1(c2ccc(-c3cc(-c4ccc5c(c4)CCNC5=O)c(N)nn3)cc2)CC1` [1-(4-(6-amino-5-(1-oxo-1,2,3,4-tetrahydroisoquinolin-6-yl)pyridazin-3-yl)phenyl)cyclopropanecarbonitrile], the IC50 reads like this: under setting [1], less than 0.15 µM; under setting [2], less than 0.15 µM.

As to `[2H]C([2H])([2H])N(C1CC1)S(=O)(=O)c1ccc(-c2cnc(N)c(-c3ccc4c(c3)CCNC4=O)n2)nc1` [6-(5-amino-6-(1-oxo-1,2,3,4-tetrahydroisoquinolin-6-yl)pyrazin-2-yl)-N-cyclopropyl-N-trideuteromethylpyridine-3-sulfonamide], the 50% inhibitory concentration (IC50) was less than 0.01 µM under setting [1] and less than 0.01 µM under setting [2].

As to `CCNS(=O)(=O)c1ccc(-c2cnc(N)c(-c3ccc4c(c3)CCC/C4=N\O)c2)cc1` [(E)-4-(6-amino-5-(5-(hydroxyimino)-5,6,7,8-tetrahydronaphthalen-2-yl)pyridin-3-yl)-N-ethylbenzenesulfonamide], the IC50 reads like this: under setting [1], less than 0.05 µM; under setting [2], less than 0.01 µM. For `CCN(CC)S(=O)(=O)c1ccc(-c2cnc(N)c(-c3ccc4c(O)ncnc4c3)c2)cc1` [4-(6-amino-5-(4-hydroxyquinazolin-7-yl)pyridin-3-yl)-N,N-diethylbenzenesulfonamide] the same measures were less than 0.05 µM and less than 0.01 µM.

In the case of `Nc1ncc(-c2ccc(S(=O)(=O)NC3CC3)cc2)cc1-c1ccc2c(c1)OCCNC2=O` [4-(6-amino-5-(5-oxo-2,3,4,5-tetrahydrobenzo[f][1,4]oxazepin-8-yl)pyridin-3-yl)-N-cyclopropylbenzenesulfonamide], the IC50 was less than 0.01 µM under setting [1] and less than 0.01 µM under setting [2]. As for `CC1(C)CNC(=O)c2ccc(-c3nc(-c4ccc(S(=O)(=O)NC5CC5)cc4)cnc3N)cc21` [4-(5-amino-6-(4,4-dimethyl-1-oxo-1,2,3,4-tetrahydroisoquinolin-6-yl)pyrazin-2-yl)-N-cyclopropylbenzenesulfonamide], the concentration for half-maximal inhibition (IC50) reads like this: under setting [1], less than 0.01 µM; under setting [2], less than 0.01 µM.

Regarding `Nc1ncc(-c2ccc(S(=O)(=O)NC3CCC3)cc2)cc1-c1ccc2c(c1)CCNC2=O` [4-(6-amino-5-(1-oxo-1,2,3,4-tetrahydroisoquinolin-6-yl)pyridin-3-yl)-N-cyclobutylbenzenesulfonamide], the IC50 reads like this: under setting [1], less than 0.01 µM; under setting [2], less than 0.01 µM. As for `CN(C)S(=O)(=O)N1CC=C(c2cnc(N)c(-c3ccc4c(c3)CCNC4=O)c2)CC1` [6-amino-N,N-dimethyl-5-(1-oxo-1,2,3,4-tetrahydroisoquinolin-6-yl)-5′,6′-dihydro-[3,4′-bipyridine]-1′(2′H)-sulfonamide], the IC50 was less than 0.15 µM under setting [1] and less than 0.05 µM under setting [2]. For `CN(C1CC1)S(=O)(=O)c1ccc(-c2cnc(N)c(-c3ccc4c(c3)OC[C@H](CO)NC4=O)c2)cc1` [(S)-4-(6-amino-5-(3-(hydroxymethyl)-5-oxo-2,3,4,5-tetrahydrobenzo[f][1,4]oxazepin-8-yl)pyridin-3-yl)-N-cyclopropyl-N-methylbenzenesulfonamide] the same measures were less than 0.01 µM and less than 0.01 µM. With `Nc1ncc(-c2ccc(S(=O)(=O)NC3CC3)cc2)nc1-c1ccc2c(c1)C1(CC1)NC2=O` [4-(5-amino-6-(3′-oxospiro[cyclopropane-1,1′-isoindolin]-6′-yl)pyrazin-2-yl)-N-cyclopropylbenzenesulfonamide], the IC50 runs as follows: under setting [1], less than 0.05 µM; under setting [2], less than 0.01 µM. On to `CN(C1CC1)S(=O)(=O)c1ccc(-c2cnc(N)c(-c3ccc4c(c3)CCNC4=O)c2)nc1` [6′-amino-N-cyclopropyl-N-methyl-5′-(1-oxo-1,2,3,4-tetrahydroisoquinolin-6-yl)-[2,3′-bipyridine]-5-sulfonamide], for which the IC50 by setting is: under setting [1], less than 0.01 µM; under setting [2], less than 0.01 µM.

`CN(C1CC1)S(=O)(=O)c1ccc(-c2cnc(N)c(-c3ccc4c(c3)C3(CC3)NC4=O)c2)cc1` [4-(6-amino-5-(3′-oxospiro[cyclopropane-1,1′-isoindolin]-6′-yl)pyridin-3-yl)-N-cyclopropyl-N-methylbenzenesulfonamide]: the concentration for half-maximal inhibition (IC50) is, setting by setting: under setting [1], less than 0.01 µM; under setting [2], less than 0.01 µM. As for `N#CCOc1ccc(-c2cnc(N)c(-c3ccc4c(c3)CCNC4=O)n2)cc1` [2-(4-(5-amino-6-(1-oxo-1,2,3,4-tetrahydroisoquinolin-6-yl)pyrazin-2-yl)phenoxy)acetonitrile], the concentration for half-maximal inhibition (IC50) under setting [1] is less than 0.15 µM and the half-maximal inhibitory concentration (IC50) under setting [2] is less than 0.05 µM. `Nc1ncc(-c2ccc(S(=O)(=O)NC3CC3)c(F)c2)cc1-c1ccc2c(c1)CCNC2=O` [4-(6-amino-5-(1-oxo-1,2,3,4-tetrahydroisoquinolin-6-yl)pyridin-3-yl)-N-cyclopropyl-2-fluorobenzenesulfonamide]: the half-maximal inhibitory concentration (IC50) is, setting by setting: under setting [1], less than 0.01 µM; under setting [2], less than 0.01 µM. As to `N#CC1(c2ccc(-c3cnc(N)c(-c4ccc5c(c4)CCCNC5=O)n3)cc2)CCOCC1` [4-(4-(5-amino-6-(1-oxo-2,3,4,5-tetrahydro-1H-benzo[c]azepin-7-yl)pyrazin-2-yl)phenyl)tetrahydro-2H-pyran-4-carbonitrile], the IC50 under setting [1] is less than 0.05 µM and the IC50 under setting [2] was less than 0.01 µM. Take `N#CC1(c2ccc(-c3cnc(N)c(-c4ccc5c(c4)C4(CC4)NC5=O)n3)cc2)CC1` [1-(4-(5-amino-6-(3′-oxospiro[cyclopropane-1,1′-isoindolin]-6′-yl)pyrazin-2-yl)phenyl)cyclopropanecarbonitrile]: the IC50 under setting [1] is less than 0.05 µM and the IC50 under setting [2] is less than 0.01 µM.

Consider `CC(C)(C#N)c1ccc(-c2cnc(N)c(-c3ccc4c(=O)[nH]ccc4c3)n2)cc1` [2-(4-(5-amino-6-(1-oxo-1,2-dihydroisoquinolin-6-yl)pyrazin-2-yl)phenyl)-2-methylpropanenitrile], for which the half-maximal inhibitory concentration (IC50) was less than 0.05 µM under setting [1] and less than 0.01 µM under setting [2]. For `N#CC1(c2ccc(-c3cnc(N)c(-c4ccc5c(c4)CCNC5=O)n3)cc2)CCCC1` [1-(4-(5-amino-6-(1-oxo-1,2,3,4-tetrahydroisoquinolin-6-yl)pyrazin-2-yl)phenyl)cyclopentanecarbonitrile], the IC50 is, setting by setting: under setting [1], less than 0.01 µM; under setting [2], less than 0.01 µM.

For the origin of these results see patent publication US8440652B2, “MST1 kinase inhibitors and methods of their use” (Lexicon Pharmaceuticals, Inc., priority 2011, dated 2013).
